Test results published in patent publication US20210030703A1, “USE OF CALORIC RESTRICTION MIMETICS FOR POTENTIATING CHEMO-IMMUNOTHERAPY FOR THE TREATMENT OF CANCERS” (INSERM (INSTITUT NATIONAL DE LA SANTÉ ET DE LA RECHERCHE …, priority 2018, published 2021).

Tests used:
MCA205 fibrosarcoma [1] = test: Subcutaneous MCA205 fibrosarcoma: tumor growth, cure and survival under chemo-immunotherapy; type: in vivo, C57B1/6 mice; details: for Complete responses leading to tumor eradication: endpoint 50 days after chemotherapy; for Efficacy of MTX + ICIs (anti-PD-1 plus anti-CTLA-4) chemo-immunotherapy when the CRM is added: figure legends FIG. 2, 3, 4, 6
Description: Mouse strain and housing. Six- to 8-week-old wild-type female C57B1/6 mice were obtained from Envigo RMS SARL (Gannat, France). Animals were maintained in specific pathogen-free conditions in a temperature-controlled environment with 12 h light, 12 h dark cycles and received food and water ad libitum (unless precised otherwise). Animal experiments were in compliance with the EU Directive 63/2010 and approved by the Ethical Committee of the Cordeliers Research Center (Paris, France). All mouse experiments were randomized and blinded, and sample sizes were calculated to detect a statistically significant effect.
In vivo experimentations. Tumor engraftment was performed through subcutaneous injection of 3×10^5 MCA205 fibrosarcoma tumor cells (in 100 μl PBS) in the right flank of the mice. Tumor volume was monitored using a digital caliper and calculated according to the formula: volume=length×width×height/8×4/3 pi. When tumor reached 20 mm^3 on average, mice underwent fasting (48 hours without food but ad libitum access to water) or were given caloric restriction mimetics (CRMs) such as aspirin (Asp; 10 mg/kg i.p. in 200 μl phosphate buffered saline [PBS] five times per week), hydroxycitrate (HC; 5 mg/ml in drinking water daily) or spermidine (Spd; 50 mg/kg i.p. in 200 μl Earle's balanced salt solution three times per week), or were treated with mitoxantrone (MTX; 5.17 mg/kg i.p. in 200 μl PBS), or with the immune checkpoint inhibitors (ICIs) anti-PD-1 (10 mg/kg i.p. in 200 μl PBS) and/or anti-CTLA-4 (5 mg/kg i.p. in 200 μl PBS). Tumor size was carefully monitored up to 50 days post-MTX. Antitumor immunity induced by the treatment in cured mice was challenged by subcutaneously re-engrafting the same tumor (3×10^5 syngeneic MCA205 fibrosarcoma cells) in one flank while an antigenically unrelated cancer (3×10^5 syngeneic TC1 lung carcinoma cells) was implanted into the contralateral flank.
Statistical analyses. For tumor size comparison, Student unpaired t test or one-way ANOVA (Holm-Sidak) were performed. All statistical analyses were performed using GraphPad Prism version 6 for Windows (GraphPad Software, La Jolla, Calif., USA). Differences were considered significant when p value<0.05.

PD-L1 = PD-L1 expression on CD45+/- tumor infiltrating cells; type: in vivo, C57B1/6 mice
From the text: WT 9 weeks old C57B1/6 mice were subcutaneously injected with MCA205 WT fibrosarcoma cells. When tumors became palpable, mice underwent two days of fasting (d-2 to d0). HC treatment in drinking water began the day after (d-1), followed by chemotherapy with MTX (d0). 11 days post-chemotherapy, mice were sacrified and tumors were collected, dissociated, filtrated and stained with panel 3 antibodies. The results are represented as percentage among viable cells. […] The data shown represent a pool of two independent experiments sharing all the groups. Statistical analysis were realized using ordinary one-way ANOVA. ****p<0.001, ***p<0.005, **p<0.01, *p<0.05.
3 or 11 days post-chemotherapy (d3 or d11), mice were euthanized and the tumors were withdrawn and placed in gentleMACS C tubes (ref 130-096-334 from Miltenyi Biotec™) previously filled with 1 ml of DMEM or RPMI medium, and immediately put on ice. After a mechanical (with scissors) and chemical digestion (thanks to the tumor dissociation kit and the gentleMACS Octo Dissociator, ref 130-096-730 and 130-096-427, respectively, from Miltenyi Biotec™), tumors were filtered (using MACS smartstrainers […], ref 130-110-916 from Miltenyi Biotec™), washed twice with PBS and distributed in a 96-wells round bottom plate.
Then, cells were stained with a live dead dye (ref L34959 from ThermoFisher Scientific™) and an FCblock receptor targeting antibody. […] Finally, cells were resuspended in FACS buffer and analyzed on a flow cytometer BD LSR II.

mammary carcinomas = test: Hormone-induced (MPA/DMBA) orthotopic mammary tumor model; type: in vivo, BALB/c mice; details: combination of MTX-based chemotherapy and HC, versus MTX and HC alone; data not shown
From the text: Breast cancers were induced in young (7-weeks-old) female BALB/c mice by implantation of medroxyprogesterone acetate (MPA)-releasing pellets followed by gavage with the DNA damaging agent 7,12-Dimethylbenz[a]anthracene (DMBA) for the following 6 weeks. Note that the interval between the last DMBA injection and the manifestation of palpable breast cancer lesions is rather variable. When palpable tumors appeared, mice were randomized into the different experimental groups and treated with intraperitoneal injections of hydroxycitrate (100 mg/kg) at d-1 and d0 and/or intraperitoneal injections of 5.17 mg/kg of Mitoxantrone. Neutralizing anti-CD11b antibodies (clone M1/70, ref BE0007 from BioXCell™) or their isotype control (clone LTF-2, ref BE0090 from BioXCell™) were then injected at d-1, d0 and d7. Tumor growth was followed by calculating tumor surface (mm^2) with the formula length×width.

whole MCA205 tumors = test: RNA-seq analyses of whole tumors; type: in vivo, C57B1/6 mice; details: day 3 post-chemotherapy (MTX); data not shown
MCA205 fibrosarcoma [2] = test: Subcutaneous MCA205 fibrosarcoma: tumor growth, cure and survival under chemo-immunotherapy; type: in vivo, C57B1/6 mice
[3] = background, reference (9); cited from earlier work
[4] = HC + MTX chemotherapy + immunotherapy (anti-PD-1 plus anti-CTLA-4)

In the case of O=C1c2c(O)ccc(O)c2C(=O)c2c(NCCNCCO)ccc(NCCNCCO)c21 [MTX, mitoxantrone], the “Complete responses leading to tumor eradication” value (from here on “Complete responses leading”) (MCA205 fibrosarcoma [1]; MTX plus immunotherapy (antibodies blocking CTLA-4 or PD-1)) is reported as “either not seen at all or rare”, the “Complete responses leading” value (MCA205 fibrosarcoma [1]; MTX plus isotypes) is reported as “either not seen at all or rare” and the Complete cure (MCA205 fibrosarcoma [1]; MTX pretreatment, then CTLA-4/PD-1-blocking antibodies from day 8 post-chemotherapy (FIG. 6)) is reported as 3 out of 10. The “PD-L1 on non-leukocytes from the cancer (CD45- cells, mostly malignant cells)” value (PD-L1; MCA205 tumor-bearing mice treated with MTX (FIG. 8A, B)) was “upregulation”, the “PD-L1 in leukocytes expressing CD11b” value (PD-L1; MCA205 tumor-bearing mice treated with MTX (FIG. 8C, D)) was “upregulation” and the “Percentage of CD45- PD-L1+ cells” value (PD-L1; MTX alone or in combination with NF or HC, 11 days post-chemotherapy (FIG. 8A)) was “increases”. For the same compound, the “Mean fluorescent intensity of PD-L1 on CD45- cells” value (PD-L1; MTX alone or in combination with NF or HC, 11 days post-chemotherapy (FIG. 8B)) was “increases”, the “Percentage of CD45+ PD-L1+ cells” value (PD-L1; MTX alone or in combination with NF or HC, 11 days post-chemotherapy (FIG. 8C)) was “increases” and the “Mean fluorescent intensity (D) of PD-L1 on CD45- cells” value (PD-L1; MTX alone or in combination with NF or HC, 11 days post-chemotherapy (FIG. 8D)) was “increases”.
For O=C(O)CC(O)(C(=O)O)C(O)C(=O)O (stereo not shown) [HC, hydroxycitrate], the “Reduction of tumor growth and prolongation of mouse survival” value (mammary carcinomas) was “highly efficient in reducing tumor growth and prolonging mouse survival”, the “Evidence of local immunostimulation” value (whole MCA205 tumors) was “failed to yield convincing evidence” and the Cure rate (MCA205 fibrosarcoma [2]; CRM added to OXA+PD-1 blockade) was 80%. For the same compound, the Cured mice (MCA205 fibrosarcoma [2]; CRM added to OXA+PD-1 blockade) was 16 out of 20, the “Efficacy of OXA and anti-PD-1 combination when the CRM is added” value (MCA205 fibrosarcoma [2]; figure legend FIG. 7) was “further enhanced” and the “Efficacy of anticancer chemotherapy with immunogenic cell death (ICD) inducers” value [3] was “able to improve the efficacy”. The “Complete responses at day 30” value (MCA205 fibrosarcoma [1]; [4]) was “all animals of the group”, the Stable response (MCA205 fibrosarcoma [1]; [4]) was 7 out of 8 and the “Reduction of tumor growth” value (MCA205 fibrosarcoma [1]; HC in drinking water + MTX chemotherapy + immunotherapy, versus all other groups) was “more efficient in reducing tumor growth than all other groups”. For the same compound, the “Reduction of tumor growth and prolongation of survival” value (MCA205 fibrosarcoma [1]; HC+MTX versus MTX alone, data not shown) was “more successful in reducing tumor growth and in prolonging survival than MTX alone”, the “Complete responses leading” value (MCA205 fibrosarcoma [1]; MTX plus HC) was “either not seen at all or rare” and the Tumor-free mice (MCA205 fibrosarcoma [1]; MTX pre-treatment associated with the CRM, then CTLA-4/PD-1-blocking antibodies (FIG. 6)) was 7 out of 10. For the same compound, the “Efficacy of MTX + ICIs (anti-PD-1 plus anti-CTLA-4) chemo-immunotherapy when the CRM is added” value (MCA205 fibrosarcoma [1]) was “further enhanced”, the “Efficacy of MTX + ICIs (anti-PD-1 plus anti-CTLA-4) chemo-immunotherapy when the CRM is added” value (MCA205 fibrosarcoma [1]; listed as Hydroxycitrate) was “enhances tumor growth control” and the “Response to CTLA-4/PD-1-blockade” value (MCA205 fibrosarcoma [1]; pretreated with the CRM alone (without MTX), data not shown) was “did not respond”. For the same compound, the “Effect of co-treatment on MTX-induced PD-L1 upregulation” value (PD-L1; FIG. 8A-D) was “not altered”.
